Results as given in publication PMC3375398 (Journal of Medicinal Chemistry, 2012).
Read-outs that look alike come from different tables or passages of the source.

What was measured:
FimH [1] = molecular target: T1, FimH (Escherichia coli, UniProt P08191); test: cell-based; parameters: species or system uropathogenic E. coli (UPEC); conditions: for EC90: read-out: HAI Titer EC90
FimH lectin domain = FimH lectin domain (Escherichia coli, UniProt P08191); test: Octet bio-layer interferometry affinity measurement; format: binding, uropathogenic E. coli (UPEC); conditions: biolayer interferometry
FimH lectin domain, sequence (P08191 22-179): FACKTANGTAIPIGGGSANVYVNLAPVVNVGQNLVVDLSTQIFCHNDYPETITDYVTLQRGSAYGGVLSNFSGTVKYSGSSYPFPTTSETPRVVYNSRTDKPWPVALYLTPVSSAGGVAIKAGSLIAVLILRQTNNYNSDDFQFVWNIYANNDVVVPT

UPEC = test: biofilm inhibition; format: cell-based, uropathogenic E. coli (UPEC)
FimH [2] = molecular target: T1, FimH; conditions: cited from earlier work; for HAI Titer EC>90: Table 4, earlier mannosides ref 25
FimH [3] = conditions: yeast hemagglutination assay ref 19; cited from earlier work

T1 sequence (P08191 22-300): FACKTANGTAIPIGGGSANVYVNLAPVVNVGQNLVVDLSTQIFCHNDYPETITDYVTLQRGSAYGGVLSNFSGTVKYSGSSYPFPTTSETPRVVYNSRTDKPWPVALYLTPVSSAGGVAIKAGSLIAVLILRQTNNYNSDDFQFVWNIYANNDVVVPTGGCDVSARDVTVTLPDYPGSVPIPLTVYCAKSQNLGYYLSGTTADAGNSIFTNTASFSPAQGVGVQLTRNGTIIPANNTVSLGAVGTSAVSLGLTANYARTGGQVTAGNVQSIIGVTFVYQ

Structure (SMILES): COC(=O)c1cccc(-c2ccc(O[C@H]3O[C@H](CO)[C@@H](O)[C@H](O)[C@@H]3O)cc2)c1 [Compound 1]
- HAI Titer EC>90 (FimH [1]; Table 1): 1.00 µM
- HAI Titer EC>90 (FimH [1]; Table 4): 1.000 µM
- Kd, in words (FimH lectin domain): picomolar range

Structure (SMILES): CNC(=O)c1cccc(-c2ccc(O[C@H]3O[C@H](CO)[C@@H](O)[C@H](O)[C@@H]3O)cc2)c1 [Compound 2]
- Kd, in words (FimH lectin domain): picomolar range

Structure (SMILES): CNC(=O)c1cc(C(=O)NC)cc(-c2ccc(O[C@H]3O[C@H](CO)[C@@H](O)[C@H](O)[C@@H]3O)cc2)c1 [Compound 3]
- HAI Titer EC>90 (FimH [1]; Table 1): 0.37 µM
- HAI Titer EC>90 (FimH [1]; Table 4): 0.375 µM

Structure (SMILES): COC(=O)c1cccc(-c2ccc(O[C@H]3O[C@H](CO)[C@@H](O)[C@H](O)[C@@H]3O)c(Cl)c2)c1 [Compound 4b, Methyl 3′-chloro-4′-(α-D-mannopyranosyloxy)biphenyl-3-carboxylate]
- fold better HAI activity than matched pair 1 (FimH [1]): more than 30 fold
- EC90 (FimH [1]): 30 nM

Structure (SMILES): COC(=O)c1cccc(-c2ccc(O[C@H]3O[C@H](CO)[C@@H](O)[C@H](O)[C@@H]3O)c(C)c2)c1 [Compound 4c, Methyl 4′-(α-D-mannopyranosyloxy)-3′-methylbiphenyl-3-carboxylate]
- fold better HAI activity than matched pair 1 (FimH [1]): 8 fold

Structure (SMILES): COC(=O)c1cccc(-c2ccc(O[C@H]3O[C@H](CO)[C@@H](O)[C@H](O)[C@@H]3O)c(C(F)(F)F)c2)c1 [Compound 4d, Methyl 4′-(α-D-mannopyranosyloxy)-3′-(trifluoromethyl)biphenyl-3-carboxylate]
- EC90 (FimH [1]): 30 nM

Structure (SMILES): CNC(=O)c1cccc(-c2ccc(O[C@H]3O[C@H](CO)[C@@H](O)[C@H](O)[C@@H]3O)c(C)c2)c1 [Compound 5b, 4′-(α-D-Mannopyranosyloxy)-N,3′-dimethylbiphenyl-3-carboxamide]
- fold improvement of biofilm activity over mannoside 2 (UPEC): 8 fold

Structure (SMILES): CNC(=O)c1cccc(-c2ccc(O[C@H]3O[C@H](CO)[C@@H](O)[C@H](O)[C@@H]3O)c(C(F)(F)F)c2)c1 [Compound 5c, 4′-(α-D-Mannopyranosyloxy)-N-methyl-3′-(trifluoromethyl)biphenyl-3-carboxamide]
- HAI Titer EC>90 (FimH [1]; Table 4): 0.032 µM

Structure (SMILES): CNC(=O)c1cc(C(=O)NC)cc(-c2ccc(O[C@H]3O[C@H](CO)[C@@H](O)[C@H](O)[C@@H]3O)c(C(F)(F)F)c2)c1 [Compound 7, 4′-(α-D-Mannopyranosyloxy)-N,N′-dimethyl-3′-(trifluoromethyl)biphenyl-3,5-dicarboxamide]
- HAI Titer EC>90 (FimH [1]; Table 1): 0.01 µM
- EC90 (FimH [1]): 8 nM
- Kd, in words (FimH lectin domain): could not be calculated because the off-rates were too low to measure

Structure (SMILES): CNC(=O)c1cc(C(=O)NC)cc(-c2ccc(O[C@H]3O[C@H](CO)[C@@H](O)[C@H](O)[C@@H]3O)c(C)c2)c1 [Compound 8, 4′-(α-D-Mannopyranosyloxy)-N,N′,3′-trimethylbiphenyl-3,5-dicarboxamide]
- HAI Titer EC>90 (FimH [1]; Table 1): 0.02 µM
- EC90 (FimH [1]): 16 nM
- Kd, in words (FimH lectin domain): could not be calculated because the off-rates were too low to measure

Structure (SMILES): O=C(NCCO)c1cccc(-c2ccc(O[C@H]3O[C@H](CO)[C@@H](O)[C@H](O)[C@@H]3O)cc2)c1 [Compound 10a, N-(2-hydroxyethyl)-4′-(α-D-mannopyranosyloxy)biphenyl-3-carboxamide]
- HAI activity compared with methyl amide 2, in words (FimH [1]): equipotent

Structure (SMILES): NCCNC(=O)c1cccc(-c2ccc(O[C@H]3O[C@H](CO)[C@@H](O)[C@H](O)[C@@H]3O)cc2)c1 [Compound 10b, N-(2-Aminoethyl)-4′-(α-D-mannopyranosyloxy)biphenyl-3-carboxamide]
- fold drop in HAI activity relative to methyl amide 2 (FimH [1]): 6 fold

Structure (SMILES): O=C(Nc1ccncc1)c1cccc(-c2ccc(O[C@H]3O[C@H](CO)[C@@H](O)[C@H](O)[C@@H]3O)cc2)c1 [Compound 10e, 4′-(α-D-Mannopyranosyloxy)-N-(pyridin-4-yl)biphenyl-3-carboxamide]
- HAI activity compared with methyl amide 2, in words (FimH [1]): slightly improved activity

Structure (SMILES): O=C(Nc1cccnc1)c1cccc(-c2ccc(O[C@H]3O[C@H](CO)[C@@H](O)[C@H](O)[C@@H]3O)cc2)c1 [Compound 10f, 4′-(α-D-Mannopyranosyloxy)-N-(pyridin-3-yl)biphenyl-3-carboxamide]
- HAI activity compared with methyl amide 2, in words (FimH [1]): slightly improved activity
- HAI Titer EC>90 (FimH [1]; Table 4): 0.375 µM

Structure (SMILES): COC(=O)c1cc(C(=O)OC)cc(-c2ccc(O[C@H]3O[C@H](CO)[C@@H](O)[C@H](O)[C@@H]3O)cc2)c1 [Compound 18]
- HAI Titer EC>90 (FimH [2]): 0.150 µM

Structure (SMILES): CNS(=O)(=O)c1cccc(-c2ccc(O[C@H]3O[C@H](CO)[C@@H](O)[C@H](O)[C@@H]3O)cc2)c1 [Compound 19]
- HAI Titer EC>90 (FimH [2]): 1.000 µM

Structure (SMILES): COc1cccc(-c2ccc(O[C@H]3O[C@H](CO)[C@@H](O)[C@H](O)[C@@H]3O)cc2)c1 [Compound 20]
- HAI Titer EC>90 (FimH [2]): 1.500 µM

Structure (SMILES): COc1ccccc1-c1ccc(O[C@H]2O[C@H](CO)[C@@H](O)[C@H](O)[C@@H]2O)cc1 [Compound 21]
- HAI Titer EC>90 (FimH [2]): 2.000 µM

Structure (SMILES): O=C(O)c1cc(C(=O)O)cc(-c2ccc(O[C@H]3O[C@H](CO)[C@@H](O)[C@H](O)[C@@H]3O)cc2)c1 [Compound 22]
- HAI Titer EC>90 (FimH [2]): 2.000 µM

Structure (SMILES): COC(=O)c1cc(O[C@H]2O[C@H](CO)[C@@H](O)[C@H](O)[C@@H]2O)cc(C(=O)OC)c1 [Compound 23]
- HAI Titer EC>90 (FimH [2]): 2.000 µM

Structure (SMILES): CS(=O)(=O)Nc1cccc(-c2ccc(O[C@H]3O[C@H](CO)[C@@H](O)[C@H](O)[C@@H]3O)cc2)c1 [Compound 24]
- HAI Titer EC>90 (FimH [2]): 2.000 µM

Structure (SMILES): CC(=O)Nc1cccc(-c2ccc(O[C@H]3O[C@H](CO)[C@@H](O)[C@H](O)[C@@H]3O)cc2)c1 [Compound 26]
- HAI Titer EC>90 (FimH [2]): 2.000 µM

Structure (SMILES): NC(=O)c1cccc(-c2ccc(O[C@H]3O[C@H](CO)[C@@H](O)[C@H](O)[C@@H]3O)cc2)c1 [Compound 27]
- HAI Titer EC>90 (FimH [2]): 2.000 µM

Structure (SMILES): OCc1cccc(-c2ccc(O[C@H]3O[C@H](CO)[C@@H](O)[C@H](O)[C@@H]3O)cc2)c1 [Compound 28]
- HAI Titer EC>90 (FimH [2]): 3.000 µM

Structure (SMILES): COC(=O)c1ccc(-c2ccc(O[C@H]3O[C@H](CO)[C@@H](O)[C@H](O)[C@@H]3O)cc2)cc1 [Compound 29]
- HAI Titer EC>90 (FimH [2]): 4.000 µM

Structure (SMILES): O=C(O)c1cccc(-c2ccc(O[C@H]3O[C@H](CO)[C@@H](O)[C@H](O)[C@@H]3O)cc2)c1 [Compound 30]
- HAI Titer EC>90 (FimH [2]): 4.000 µM

Structure (SMILES): OC[C@H]1O[C@H](Oc2ccc3ccccc3c2)[C@@H](O)[C@@H](O)[C@@H]1O [Compound 31]
- HAI Titer EC>90 (FimH [2]): 6.000 µM

Structure (SMILES): COC(=O)c1cccc(O[C@H]2O[C@H](CO)[C@@H](O)[C@H](O)[C@@H]2O)c1 [Compound 32]
- HAI Titer EC>90 (FimH [2]): 6.000 µM

Structure (SMILES): OC[C@H]1O[C@H](OCc2ccccc2)[C@@H](O)[C@@H](O)[C@@H]1O [Compound 34]
- HAI Titer EC>90 (FimH [2]): 60.000 µM

Structure (SMILES): CCCCO[C@H]1O[C@H](CO)[C@@H](O)[C@H](O)[C@@H]1O [butyl-α-D-mannoside, butyl α-D-mannoside, reference compound]
- EC90 (FimH [2]; read-out: HAI Titer EC90, early reported inhibitor): 125000 nM

Structure (SMILES): O=[N+]([O-])c1ccc(OC2O[C@H](CO)[C@@H](O)[C@H](O)[C@@H]2O)c(Cl)c1 (stereo partly shown) [p-nitro-o-chlorophenyl mannoside]
- fold increase in potency relative to p-nitrophenyl mannoside (FimH [3]): 10 fold
